Measurements as given in ChEMBL document CHEMBL5370521, “New miconazole-based azoles derived from eugenol show activity against Candida spp. and Cryptococcus gattii by inhibiting the fungal ergosterol biosynthesis” (Eur J Med Chem, 2023).
In brackets after ≈: the same amount, converted by molar mass. Activity calls are given as the source filed them. The calls are words filed in the database; no cut-off is given here.

What was measured:
Candida tropicalis [1] = experiment: Antifungal activity against Candida tropicalis ATCC 750 assessed as inhibition of fungal growth at highest concentration incubated for 24 to 48 hrs by CLSI protocol based broth microdilution method; assay type: functional, organism-based; conditions: time 24-48 hrs
Candida albicans [2] = experiment: Antifungal activity against Candida albicans SC5314 assessed as inhibition of fungal growth at highest concentration incubated for 24 to 48 hrs by CLSI protocol based broth microdilution method; assay type: functional, organism-based; conditions: time 24-48 hrs
Pichia kudriavzevii [3] = experiment: Antifungal activity against Candida krusei ATCC 20298 assessed as inhibition of fungal growth at highest concentration incubated for 24 to 48 hrs by CLSI protocol based broth microdilution method; assay type: functional, organism-based; conditions: time 24-48 hrs
[4] = Cytotoxicity against H9c2 cells assessed as inhibition of cell proliferation incubated for 72 hrs by resazurin dye based microplate reader analysis; assay type: toxicity; conditions: rat
[Candida] auris [5] = Antifungal activity against Candida auris COLO 01 A assessed as inhibition of fungal growth at highest concentration incubated for 24 to 48 hrs by CLSI protocol based broth microdilution method; assay type: functional, organism-based; conditions: Candidozyma auris, time 24-48 hrs
Nakaseomyces glabratus [6] = experiment: Antifungal activity against Candida glabrata ATCC 2001 assessed as inhibition of fungal growth at highest concentration incubated for 24 to 48 hrs by CLSI protocol based broth microdilution method; assay type: functional, organism-based; conditions: time 24-48 hrs
Cryptococcus gattii VGI = experiment: Antifungal activity against Cryptococcus gattii ATCC 24065 assessed as inhibition of fungal growth at highest concentration incubated for 24 to 48 hrs by CLSI protocol based broth microdilution method; assay type: functional; conditions: time 24-48 hrs
Candida parapsilosis [7] = experiment: Antifungal activity against Candida parapsilosis ATCC 22019 assessed as inhibition of fungal growth at highest concentration incubated for 24 to 48 hrs by CLSI protocol based broth microdilution method; assay type: functional, organism-based; conditions: time 24-48 hrs
[8] = Antifungal activity against Cryptococcus gattii ATCC 24065 assessed as inhibition of fungal growth incubated for 24 to 48 hrs by CLSI protocol based broth microdilution method; assay type: functional, Cryptococcus gattii VGI; conditions: time 24-48 hrs
[9] = Selectivity index, ratio of CC50 for cytotoxicity against […] H9c2 cells to MIC for antifungal activity against Candida glabrata ATCC 2001; assay type: toxicity, cell-based; conditions: rat, read-out: Selectivity Index
Nakaseomyces glabratus [10] = experiment: Antifungal activity against Candida glabrata ATCC 2001 assessed as inhibition of fungal growth incubated for 24 to 48 hrs by CLSI protocol based broth microdilution method; assay type: functional; conditions: time 24-48 hrs
[11] = Selectivity index, ratio of CC50 for cytotoxicity against […] H9c2 cells to MIC for antifungal activity against Cryptococcus gattii ATCC 24065; assay type: toxicity, cell-based; conditions: rat, read-out: Selectivity Index
[Candida] auris [12] = Antifungal activity against Candida auris COLO 01 A assessed as inhibition of fungal growth incubated for 24 to 48 hrs by CLSI protocol based broth microdilution method; assay type: functional; conditions: Candidozyma auris, time 24-48 hrs
[Candida] auris [13] = Potency index, ratio of fluconazole MIC to test compound MIC for antifungal activity against Candida auris COLO 01 A assessed as inhibition of fungal growth incubated for 24 to 48 hrs by CLSI protocol based broth microdilution method; assay type: functional, Candidozyma auris; conditions: time 24-48 hrs
[14] = Selectivity index, ratio of CC50 for cytotoxicity against […] H9c2 cells to MIC for antifungal activity against Candida auris COLO 01 A; assay type: toxicity, cell-based; conditions: read-out: Selectivity Index
[Candida] auris [15] = Potency index, ratio of miconazole MIC to test compound MIC for antifungal activity against Candida auris COLO 01 A assessed as inhibition of fungal growth incubated for 24 to 48 hrs by CLSI protocol based broth microdilution method; assay type: functional, Candidozyma auris; conditions: time 24-48 hrs
Candida tropicalis [16] = experiment: Antifungal activity against Candida tropicalis ATCC 750 assessed as inhibition of fungal growth incubated for 24 to 48 hrs by CLSI protocol based broth microdilution method; assay type: functional; conditions: time 24-48 hrs
[17] = Selectivity index, ratio of CC50 for cytotoxicity against […] H9c2 cells to MIC for antifungal activity against Candida tropicalis ATCC 750; assay type: toxicity, cell-based; conditions: read-out: Selectivity Index
Candida parapsilosis [18] = experiment: Antifungal activity against Candida parapsilosis ATCC 22019 assessed as inhibition of fungal growth incubated for 24 to 48 hrs by CLSI protocol based broth microdilution method; assay type: functional; conditions: Lodderomyces parapsilosis, time 24-48 hrs
Pichia kudriavzevii [19] = experiment: Antifungal activity against Candida krusei ATCC 20298 assessed as inhibition of fungal growth incubated for 24 to 48 hrs by CLSI protocol based broth microdilution method; assay type: functional; conditions: time 24-48 hrs
[20] = Selectivity index, ratio of CC50 for cytotoxicity against […] H9c2 cells to MIC for antifungal activity against Candida parapsilosis ATCC 22019; assay type: toxicity, cell-based; conditions: read-out: Selectivity Index
[21] = Selectivity index, ratio of CC50 for cytotoxicity against […] H9c2 cells to MIC for antifungal activity against Candida krusei ATCC 20298; assay type: toxicity, cell-based; conditions: read-out: Selectivity Index
Candida albicans [22] = experiment: Potency index, ratio of miconazole MIC to test compound MIC for antifungal activity against Candida albicans SC5314 assessed as inhibition of fungal growth incubated for 24 to 48 hrs by CLSI protocol based broth microdilution method; assay type: functional; conditions: time 24-48 hrs
Candida albicans [23] = experiment: Antifungal activity against Candida albicans SC5314 assessed as inhibition of fungal growth incubated for 24 to 48 hrs by CLSI protocol based broth microdilution method; assay type: functional; conditions: time 24-48 hrs
[24] = Selectivity index, ratio of CC50 for cytotoxicity against […] H9c2 cells to MIC for antifungal activity against Candida albicans SC5314; assay type: toxicity, cell-based; conditions: read-out: Selectivity Index
[25] = target: T1, Lanosterol 14-alpha demethylase (Candida albicans (strain SC5314 / ATCC MYA-2876) (Yeast), UniProt P10613); experiment: Inhibition of CYP51 in Candida albicans SC5314 assessed as reduction in ergosterol level at 3 fold MIC incubated overnight by spectrophotometric analysis
[26] = target: T1, Lanosterol 14-alpha demethylase; experiment: Inhibition of CYP51 in Candida albicans SC5314 assessed as reduction in ergosterol level at 2 fold MIC incubated overnight by spectrophotometric analysis

T1 sequence (P10613 whole entry): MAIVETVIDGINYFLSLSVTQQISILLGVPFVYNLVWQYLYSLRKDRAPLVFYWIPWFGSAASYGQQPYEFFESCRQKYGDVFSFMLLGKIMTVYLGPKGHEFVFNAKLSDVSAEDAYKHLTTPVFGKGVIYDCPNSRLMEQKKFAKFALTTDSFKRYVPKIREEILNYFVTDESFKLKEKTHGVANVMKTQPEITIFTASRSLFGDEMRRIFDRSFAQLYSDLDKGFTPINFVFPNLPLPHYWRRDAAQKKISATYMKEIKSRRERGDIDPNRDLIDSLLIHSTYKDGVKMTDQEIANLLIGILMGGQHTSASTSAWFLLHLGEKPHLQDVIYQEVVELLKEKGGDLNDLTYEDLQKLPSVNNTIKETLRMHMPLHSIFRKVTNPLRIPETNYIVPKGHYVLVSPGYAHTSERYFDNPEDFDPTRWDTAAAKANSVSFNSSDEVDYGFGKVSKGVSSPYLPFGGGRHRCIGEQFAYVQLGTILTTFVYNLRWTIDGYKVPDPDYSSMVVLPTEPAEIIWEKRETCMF

SMILES	Activity (Candida tropicalis [1])	Activity (Candida albicans [2])	Activity (Pichia kudriavzevii [3])	CC50 at 72 h [4] [µM]	Activity ([Candida] auris [5])	Activity (Nakaseomyces glabratus [6])	Activity (Cryptococcus gattii VGI)	Activity (Candida parapsilosis [7])	MIC [8] [µM]	MIC (Nakaseomyces glabratus [10]) [µM]	further results
C=CCc1ccc(OCC(Cn2cncn2)OCc2ccc(Cl)cc2)c(OC)c1 (configuration not stated)	inactive	inactive	inactive	52.9	inactive	inactive	inactive	inactive			
C=CCc1ccc(OCC(Cn2ccnc2)OCc2ccc(Cl)cc2)c(OC)c1 (configuration not stated)	inactive	inactive	inactive	33.6	inactive			inactive	18.9 (≈ 7.8 µg/mL)	36.8 (≈ 15.2 µg/mL)	selectivity ratio [9]: 0.9; selectivity ratio [11]: 1.8
CCCc1ccc(OCC(Cn2ccnc2)OC(=O)c2ccc(Cl)cc2)c(OC)c1 (configuration not stated)	inactive	inactive	inactive	35.5				inactive	72.7 (≈ 31.2 µg/mL)	36.4 (≈ 15.6 µg/mL)	MIC ([Candida] auris [12]): 36.4 µM (≈ 15.6 µg/mL); Ratio ([Candida] auris [13]): >5; selectivity ratio [14]: 0.9; selectivity ratio [9]: 0.9; selectivity ratio [11]: 0.5; Ratio ([Candida] auris [15]): 2
CCCc1ccc(OCC(Cn2ccnc2)OCc2ccc(Cl)cc2)c(OC)c1 (configuration not stated)				44.2					18.8 (≈ 7.8 µg/mL)	37.6 (≈ 15.6 µg/mL)	MIC (Candida tropicalis [16]): 75.3 µM (≈ 31.2 µg/mL); MIC ([Candida] auris [12]): 75.3 µM (≈ 31.2 µg/mL); selectivity ratio [17]: 0.6; MIC (Candida parapsilosis [18]): 75.3 µM (≈ 31.2 µg/mL); MIC (Pichia kudriavzevii [19]): 37.6 µM (≈ 15.6 µg/mL); Ratio ([Candida] auris [13]): >2; selectivity ratio [14]: 0.6; selectivity ratio [20]: 0.6; selectivity ratio [9]: 1.2; selectivity ratio [21]: 1.2; selectivity ratio [11]: 2.4; Ratio (Candida albicans [22]): 8; MIC (Candida albicans [23]): 18.8 µM (≈ 7.8 µg/mL); selectivity ratio [24]: 2.3; inhibition (INH) [25]: Active; inhibition (INH) [26]: Active
OC(Cn1cncn1)(Cn1cncn1)c1ccc(F)cc1F [FLUCONAZOLE]									13.1 (≈ 4.01 µg/mL)	13.1 (≈ 4.01 µg/mL)	MIC (Candida tropicalis [16]): 0.8 µM (≈ 0.245 µg/mL); MIC ([Candida] auris [12]): 209 µM (≈ 64 µg/mL); MIC (Candida parapsilosis [18]): 3.3 µM (≈ 1.01 µg/mL); MIC (Pichia kudriavzevii [19]): 104 µM (≈ 32 µg/mL); MIC (Candida albicans [23]): 1.6 µM (≈ 0.49 µg/mL); inhibition (INH) [25]: Active; inhibition (INH) [26]: Active
C=CCc1ccc(OCC(O)Cn2ccnc2)c(OC)c1 (configuration not stated)	inactive	inactive	inactive	644	inactive	inactive	inactive	inactive			
C=CCc1ccc(OCC(O)Cn2cncn2)c(OC)c1 (configuration not stated)	inactive	inactive	inactive	541	inactive	inactive	inactive	inactive			
CCCc1ccc(OCC(Cn2cncn2)OC(=O)c2ccc(Cl)cc2)c(OC)c1 (configuration not stated)	inactive	inactive	inactive	35.4	inactive	inactive	inactive	inactive			
Clc1ccc(COC(Cn2ccnc2)c2ccc(Cl)cc2Cl)c(Cl)c1 (configuration not stated) [MICONAZOLE]									9.4 (≈ 3.91 µg/mL)	1.2 (≈ 0.499 µg/mL)	MIC (Candida tropicalis [16]): 31.2 µM (≈ 13 µg/mL); MIC ([Candida] auris [12]): 74.9 µM (≈ 31.2 µg/mL); MIC (Candida parapsilosis [18]): 7.8 µM (≈ 3.25 µg/mL); MIC (Pichia kudriavzevii [19]): 18.7 µM (≈ 7.78 µg/mL); MIC (Candida albicans [23]): 150 µM (≈ 62.5 µg/mL)
CCCc1ccc(OCC(Cn2cncn2)OCc2ccc(Cl)cc2)c(OC)c1 (configuration not stated)	inactive	inactive	inactive	40.1	inactive	inactive	inactive	inactive			
CCCc1ccc(OCC(O)Cn2cncn2)c(OC)c1 (configuration not stated)	inactive	inactive	inactive	553	inactive	inactive	inactive	inactive			
CCCc1ccc(OCC(O)Cn2ccnc2)c(OC)c1 (configuration not stated)	inactive	inactive	inactive	453	inactive	inactive	inactive	inactive			
C=CCc1ccc(OCC(Cn2ccnc2)OC(=O)c2ccc(Cl)cc2)c(OC)c1 (configuration not stated)			inactive	129	inactive				73.2 (≈ 31.2 µg/mL)	36.5 (≈ 15.6 µg/mL)	MIC (Candida tropicalis [16]): 73.2 µM (≈ 31.2 µg/mL); selectivity ratio [17]: 1.8; MIC (Candida parapsilosis [18]): 73.2 µM (≈ 31.2 µg/mL); selectivity ratio [20]: 1.8; selectivity ratio [9]: 3.5; selectivity ratio [11]: 1.8; Ratio (Candida albicans [22]): 32; MIC (Candida albicans [23]): 4.6 µM (≈ 1.96 µg/mL); selectivity ratio [24]: 28.2; inhibition (INH) [25]: Active
C=CCc1ccc(OCC(Cn2cncn2)OC(=O)c2ccc(Cl)cc2)c(OC)c1 (configuration not stated)	inactive	inactive	inactive	96.2	inactive	inactive	inactive	inactive			
